One series concerns 3T3-L1 cells. In words: Fat accumulation inhibition in adipocytes (Oil Red O staining). The format is cell-based. The settings on record: 3T3-L1 adipocytes, hydrangenol 2.5 ug/ml. Here is the method:
In this experiment, to induce adipocyte differentiation, 3T3-L1 cells were dispensed onto a plate and cultured in a 10% BS medium until the cell density reached 100%. At the cell differentiation stage, hydrangenol-containing hydrangea (Hydrangea serrata) (25 ug/ml), hydrangenol (2.5 ug/ml) or a positive control pioglatazone (10 uM) was added to a 10% FBS differentiation medium (5 μg/ml of insulin, 1 μM dexametasone, 0.5 mM 3-isobutyl-1-methylxanthine), respectively. After 10 days of treatment oil Red-O staining and quantitative analysis were performed to determine how much fat accumulation was inhibited. For visual evaluation, images were taken after staining, and then the stained cells were completely dried, dissolved in dimethyl sulfoxide (DMSO), transferred to a 96-well plate, and absorbance at 450 nm was measured.

The nature of series [1]: Body weight- and fat-reducing effects of HG in obese mice. The format is in vivo. As to conditions: obese mice (HFD); for changes in the body weight: oral administration at the same time with induction of obesity, 5 days per week for 12 weeks, FIG. 13; for body fat (dual-energy X-ray absorptiometry, fat weight): oral administration, 12 weeks, FIGS. 14 and 15. As for the experimental part: To analyze in vivo anti-obesity efficacy of HG, animal models of obesity were prepared. 8-week-old male C57BL/6N mice (SPF grade, 20±2 g, Orient Bio) were set into 7 groups as follows, and 10 mice per each group were tested: as normal control groups, normal mice (con) with no high fat diet and no administration, and obese mice (HFD) with induction of obesity by 30% high fat diet and no administration, and as a positive control group, obese mice with oral administration of orlistat which is an anti-obesity agent. As experimental groups, obese mice with oral administration of HG of 20 mg/kg, 40 mg/kg, or 80 mg/kg, and normal mice with oral administration of HG of 80 mg/kg were used. Mice were administered with HG at the same time with induction of obesity, and HG was administered for 5 days per week for 12 weeks. A dark: light cycle was maintained at intervals of 12 hours: 12 hours, and mice were allowed to free access to water. An experiment was performed to analyze whether the body weight and fat of mice decreased when HG was administered. […] In addition, images of a fat distribution and body fat contents of mice of each experimental group were measured by dual-energy X-ray absorptiometry in the last week of the animal test. Each mice was sacrificed, and a visceral adipose tissue including epididymal fat was separated and a fat was weighed. The experimental results were tested for a significant difference between groups using a t-test in the Sigma plot statistical program (p#<0.05 vs normal control, p*<0.05, r<0.01, P***<0.001 vs obese group). As a result, it was confirmed that body fat was decreased in the positive control group and the HG-administered group (FIGS. 14 and 15).

A short description of series [2]: Effects of HG on liver and kidney (serum GOT, GPT, BUN). The format is in vivo, mice. Here is the method: (§1) To analyze in vivo anti-obesity efficacy of HG, animal models of obesity were prepared. 8-week-old male C57BL/6N mice (SPF grade, 20±2 g, Orient Bio) were set into 7 groups as follows, and 10 mice per each group were tested: as normal control groups, normal mice (con) with no high fat diet and no administration, and obese mice (HFD) with induction of obesity by 30% high fat diet and no administration, and as a positive control group, obese mice with oral administration of orlistat which is an anti-obesity agent. As experimental groups, obese mice with oral administration of HG of 20 mg/kg, 40 mg/kg, or 80 mg/kg, and normal mice with oral administration of HG of 80 mg/kg were used. Mice were administered with HG at the same time with induction of obesity, and HG was administered for 5 days per week for 12 weeks. A dark: light cycle was maintained at intervals of 12 hours: 12 hours, and mice were allowed to free access to water. To examine whether HG induced liver and kidney damage, glutamic oxalacetic transaminase (GOT), glutamic pyruvate transaminase (GPT), and blood urea nitrogen (BUN) were measured by serum analysis using a biochemical analyzer (AU480 Chemistry Analyzer, Beckman coulter, Calif., USA).

The nature of series [3]: Changes of blood triglyceride and blood cholesterol by HG. The format is in vivo, mice. As to conditions: blood. As for the experimental part: as §1, with “analyze the effects of” for “examine whether”, “on blood triglyceride” for “induced liver and kidney damage, glutamic oxalacetic transaminase (GOT), glutamic pyruvate transaminase (GPT),”, “cholesterol, a hematological-biochemical test was performed” for “urea nitrogen (BUN) were measured by serum analysis”

Where [4] appears, read: HG-administered group, Table 4 and FIG. 17.
The mark [5] stands for this setting: obese mice (HFD) + HG 20 mg/kg oral, 12 weeks.
The mark [6] stands for this setting: obese mice (HFD) + HG 40 mg/kg oral, 12 weeks.
Setting [7] is: obese mice (HFD) + HG 80 mg/kg oral, 12 weeks.
[8] abbreviates: serum, obese mice (HFD) + oral orlistat.
Setting [9] is: obese mice (HFD) + oral orlistat.

In the case of `O=C1OC(c2ccc(O)cc2)Cc2cccc(O)c21` (stereo not drawn) [HG, 8-hydroxy-3-(4-hydroxyphenyl)-3,4-dihydroisochromen-1-one], the “triglyceride production in adipocytes” value in the series with 3T3-L1 cells is recorded as “suppressed”. In series [1], the “changes in the body weight” value is given as “body weight-reducing effects were observed” and the “body fat (dual-energy X-ray absorptiometry, fat weight)” value is recorded as “decreased”. Also, the “GOT, GPT and BUN, difference between 7 groups” value in series [2] (mouse, in vivo) is reported as “no significant difference”. For the same compound, in series [3] (HG-administered group, Table 4), the HDL level result is on record as “no significant difference” and the triglyceride level result is “no significant difference”. Besides, in series [3] (setting [4]), the LDL result is “reduction” and the total cholesterol entry was “reduction”. For the same compound, in series [3] (normal mice + HG 80 mg/kg oral), the CHOL worked out at 96.20 mg/dL, the HDL turned out to be 66.40 mg/dL, the LDL was determined as 5.70 mg/dL and the TG stood at 80.10 mg/dL. In addition, in series [3] (setting [5]), the CHOL was 126.78 mg/dL, the HDL was determined as 80.78 mg/dL, the LDL stood at 7.78 mg/dL and the TG came to 74.63 mg/dL. Besides, in series [3] (setting [6]), the CHOL came to 112.56 mg/dL, the HDL amounted to 71.89 mg/dL, the LDL is 7.38 mg/dL and the TG came to 58.89 mg/dL. Further, in series [3] (setting [7]), the CHOL was found to be 110.14 mg/dL, the HDL is 71.20 mg/dL, the LDL came to 7.13 mg/dL and the TG came to 63.78 mg/dL.

On to `CCCCCCCCCCC[C@@H](C[C@@H]1OC(=O)[C@H]1CCCCCC)OC(=O)[C@H](CC(C)C)NC=O` [Orlistat, orlistat], for which, in series [1], the “changes in the body weight” value was “body weight-reducing effects were observed” and the “body fat (dual-energy X-ray absorptiometry, fat weight)” value is reported as “decreased”. Besides, in series [2] (setting [8]), the BUN was determined as 19.89 mg/dL, the GOT was determined as 63 U/L and the GPT worked out at 17.6 U/L. Besides, in series [3] (setting [9]), the CHOL was determined as 115.63 mg/dL, the HDL was found to be 83.70 mg/dL, the LDL came to 8.60 mg/dL and the TG was 76.40 mg/dL.
